Experimental data published in patent US20100285959A1, “HERBICIDAL MIXTURES” (priority 2006, published 2010).

Tests used:
winter wheat (TRZAW) = assay: Test 27 field trial, postemergence; type: in vivo, Triticum aestivum; conditions: cv. Custer, Triticum aestivum (winter wheat), in vivo
Source text: (§1) Wheat seeds (cv. ‘Custer’) were planted in late fall season in a clay loam soil. Plots were 9 m long by 1.8 m wide. The field was managed using conventional tillage practices. […] All treatments also included a surfactant. […] Results are the means of the three replicates.

giant foxtail (SETFA) = assay: Test 26 field trial, postemergence; type: in vivo, Setaria faberi; parameters: scale not given here
Source text: (§2) Corn seeds (hybrid ‘Pioneer 31G96’) were planted in mid spring season, 3.8 cm deep in a silt loam soil having 2% organic matter and a pH of 6.6. Plots were 6.1 m long by 3.0 m wide with rows spaced 76 cm apart. Seeds were spaced 15 cm apart within the rows. The field was managed using conventional tillage practices. […] All treatments also included a surfactant. […] Some of the weed species could not be evaluated at every timing. […] Results are the means of the three replicates.

jimsonweed (DATST) = assay: Test 26 field trial, postemergence; type: in vivo, Datura stramonium; conditions: 28 DAA
Source text: as §2

corn (ZEAMD) = assay: Test 26 field trial, postemergence; type: in vivo, Zea mays ssp. indentata; conditions: hybrid Pioneer 31G96, Zea mays ssp. indentata (corn), in vivo
Source text: as §2

kochia (KCHSC) = assay: Test 27 field trial, postemergence; type: in vivo, Kochia scoparia; parameters: scale not given here; conditions: thifensulfuron-methyl 10 g a.i./ha
Source text: as §1

giant ragweed (AMBTR) = assay: Test 26 field trial, postemergence; type: in vivo, Ambrosia trifida
Source text: as §2

velvetleaf (ABUTH) = assay: Test 26 field trial, postemergence; type: in vivo, Abutilon theophrasti; parameters: scale not given here
Source text: as §2

[1] = test system: ivyleaf morningglory (IPOHE); assay: Test 26 field trial, postemergence; type: in vivo, Ipomoea hederacea; parameters: scale not given here
Source text: as §2

[2] = test system: Pennsylvania smartweed (POLPY); assay: Test 26 field trial, postemergence; type: in vivo, Polygonum pensylvanicum
Source text: as §2

common ragweed (AMBEL) = assay: Test 26 field trial, postemergence; type: in vivo, Ambrosia artemisiifolia; parameters: scale not given here
Source text: as §2

[3] = test system: common lambsquarters (CHEAL); assay: Test 26 field trial, postemergence; type: in vivo, Chenopodium album; parameters: scale not given here
Source text: as §2

Question: Which results are given for `COC(=O)c1sccc1S(=O)(=O)NC(=O)Nc1nc(C)nc(OC)n1` [Thifensulfuron-methyl]?
Answer: TRZAW Obs (winter wheat (TRZAW); 16 days after application): 0; TRZAW Obs (winter wheat (TRZAW); 28 days after application): 0; TRZAW Obs (winter wheat (TRZAW); 49 days after application): 0; SETFA Obs (giant foxtail (SETFA); 28 DAA, 2 g a.i./ha): 87; SETFA Obs (giant foxtail (SETFA); 28 DAA, 4 g a.i./ha): 88; SETFA Obs (giant foxtail (SETFA); 28 DAA, 8 g a.i./ha): 82; SETFA Obs (giant foxtail (SETFA); 56 DAA, 2 g a.i./ha): 0; SETFA Obs (giant foxtail (SETFA); 56 DAA, 4 g a.i./ha): 23; SETFA Obs (giant foxtail (SETFA); 56 DAA, 8 g a.i./ha): 13; DATST Obs (jimsonweed (DATST); 2 g a.i./ha): 40; DATST Obs (jimsonweed (DATST); 4 g a.i./ha): 87; DATST Obs (jimsonweed (DATST); 8 g a.i./ha): 83; ZEAMD Obs (corn (ZEAMD); 14 days after application): 0; ZEAMD Obs (corn (ZEAMD); 56 days after application): 0; KCHSC Obs (kochia (KCHSC); 16 DAA): 0; KCHSC Obs (kochia (KCHSC); 28 DAA): 0; KCHSC Obs (kochia (KCHSC); 49 DAA): 0; AMBTR Obs (giant ragweed (AMBTR); 14 DAA, 2 g a.i./ha): 75; AMBTR Obs (giant ragweed (AMBTR); 28 DAA, 2 g a.i./ha): 5; AMBTR Obs (giant ragweed (AMBTR); 28 DAA, 4 g a.i./ha): 5; ABUTH Obs (velvetleaf (ABUTH); 14 DAA, 2 g a.i./ha): 53; ABUTH Obs (velvetleaf (ABUTH); 14 DAA, 4 g a.i./ha): 60; ABUTH Obs (velvetleaf (ABUTH); 14 DAA, 8 g a.i./ha): 55; ABUTH Obs (velvetleaf (ABUTH); 28 DAA, 2 g a.i./ha): 75; ABUTH Obs (velvetleaf (ABUTH); 28 DAA, 4 g a.i./ha): 79; ABUTH Obs (velvetleaf (ABUTH); 28 DAA, 8 g a.i./ha): 87; ABUTH Obs (velvetleaf (ABUTH); 56 DAA, 2 g a.i./ha): 33; ABUTH Obs (velvetleaf (ABUTH); 56 DAA, 4 g a.i./ha): 30; ABUTH Obs (velvetleaf (ABUTH); 56 DAA, 8 g a.i./ha): 73; IPOHE Obs ([1]; 14 DAA, 2 g a.i./ha): 57; IPOHE Obs ([1]; 14 DAA, 4 g a.i./ha): 72; IPOHE Obs ([1]; 14 DAA, 8 g a.i./ha): 73; IPOHE Obs ([1]; 28 DAA, 2 g a.i./ha): 17; IPOHE Obs ([1]; 28 DAA, 4 g a.i./ha): 20; IPOHE Obs ([1]; 28 DAA, 8 g a.i./ha): 45; IPOHE Obs ([1]; 56 DAA, 2 g a.i./ha): 0; IPOHE Obs ([1]; 56 DAA, 4 g a.i./ha): 0; IPOHE Obs ([1]; 56 DAA, 8 g a.i./ha): 20; POLPY Obs ([2]; 14 DAA, 8 g a.i./ha): 0; POLPY Obs ([2]; 28 DAA, 2 g a.i./ha): 73; POLPY Obs ([2]; 28 DAA, 4 g a.i./ha): 100; POLPY Obs ([2]; 28 DAA, 8 g a.i./ha): 100; AMBEL Obs (common ragweed (AMBEL); 14 DAA, 2 g a.i./ha): 55; AMBEL Obs (common ragweed (AMBEL); 14 DAA, 4 g a.i./ha): 72; AMBEL Obs (common ragweed (AMBEL); 14 DAA, 8 g a.i./ha): 76; AMBEL Obs (common ragweed (AMBEL); 28 DAA, 2 g a.i./ha): 23; AMBEL Obs (common ragweed (AMBEL); 28 DAA, 4 g a.i./ha): 53; AMBEL Obs (common ragweed (AMBEL); 28 DAA, 8 g a.i./ha): 43; AMBEL Obs (common ragweed (AMBEL); 56 DAA, 2 g a.i./ha): 0; AMBEL Obs (common ragweed (AMBEL); 56 DAA, 4 g a.i./ha): 17; AMBEL Obs (common ragweed (AMBEL); 56 DAA, 8 g a.i./ha): 25; CHEAL Obs ([3]; 14 DAA, 2 g a.i./ha): 65; CHEAL Obs ([3]; 14 DAA, 4 g a.i./ha): 83; CHEAL Obs ([3]; 14 DAA, 8 g a.i./ha): 80; CHEAL Obs ([3]; 28 DAA, 2 g a.i./ha): 90; CHEAL Obs ([3]; 28 DAA, 4 g a.i./ha): 93; CHEAL Obs ([3]; 28 DAA, 8 g a.i./ha): 98; CHEAL Obs ([3]; 56 DAA, 2 g a.i./ha): 27; CHEAL Obs ([3]; 56 DAA, 4 g a.i./ha): 50; CHEAL Obs ([3]; 56 DAA, 8 g a.i./ha): 93
